The conditions of the data set: for viscosity / mass density: 101.33 kPa, Liquid; for viscosity: Falling or rolling sphere viscometry; for mass density: Vibrating tube method; for surface tension liquid-gas: Pendant drop shape.

We go through two compounds from the NIST ThermoML archive (doi:10.1016/j.jct.2013.11.005).

± gives the expanded uncertainty stated by the source.

In the case of `CCCCn1cc[n+](C)c1.N#C[S-]` [1-butyl-3-methylimidazolium thiocyanate], the viscosity is listed as 76.08 ± 2 mPa·s (293.15 K); 59.81 ± 1.4 mPa·s (298.15 K); 47.84 ± 1.1 mPa·s (303.15 K); 32.2 ± 0.77 mPa·s (313.15 K); 22.97 ± 0.54 mPa·s (323.15 K); 17.12 ± 0.4 mPa·s (333.15 K). The viscosity (343.15 K) is 13.2 ± 0.31 mPa·s and the viscosity (353.15 K) is on record as 10.5 ± 0.25 mPa·s. Moreover, the mass density reads like this: (293.15 K) 1073.99 ± 0.99 kg/m3; (298.15 K) 1071.04 ± 0.98 kg/m3; (303.15 K) 1068.08 ± 0.98 kg/m3; (313.15 K) 1062.21 ± 0.97 kg/m3; (323.15 K) 1056.39 ± 0.95 kg/m3; (333.15 K) 1050.61 ± 0.94 kg/m3. Moreover, the mass density was found to be 1044.87 ± 0.93 kg/m3 (343.15 K) and 1039.17 ± 0.92 kg/m3 (353.15 K). For the same compound, the surface tension liquid-gas was 47 ± 0.7 mN/m (298.15 K), 46.6 ± 0.7 mN/m (303.15 K), 45.7 ± 0.7 mN/m (313.15 K) and 44.8 ± 0.7 mN/m (323.15 K).
Regarding `CCn1cc[n+](C)c1.N#C[S-]` [1-ethyl-3-methylimidazolium thiocyanate], the viscosity runs as follows: (293.15 K) 28.27 ± 0.67 mPa·s; (298.15 K) 23.79 ± 0.56 mPa·s; (303.15 K) 20.25 ± 0.48 mPa·s; (313.15 K) 15.13 ± 0.36 mPa·s; (323.15 K) 11.73 ± 0.28 mPa·s; (333.15 K) 9.36 ± 0.22 mPa·s. Besides, the viscosity by setting is: (343.15 K) 7.65 ± 0.18 mPa·s; (353.15 K) 6.38 ± 0.15 mPa·s. Moreover, the mass density reads like this: (293.15 K) 1120.02 ± 1.1 kg/m3; (298.15 K) 1116.97 ± 1.1 kg/m3; (303.15 K) 1113.91 ± 1.1 kg/m3; (313.15 K) 1107.95 ± 1.1 kg/m3; (323.15 K) 1101.84 ± 1.1 kg/m3; (333.15 K) 1095.89 ± 1 kg/m3. Besides, the mass density is, setting by setting: (343.15 K) 1089.98 ± 1 kg/m3; (353.15 K) 1084.12 ± 1 kg/m3. For the same compound, the surface tension liquid-gas (298.15 K) was 54.1 ± 0.8 mN/m, the surface tension liquid-gas (303.15 K) was 53.6 ± 0.8 mN/m, the surface tension liquid-gas (313.15 K) is 52.9 ± 0.8 mN/m and the surface tension liquid-gas (323.15 K) amounted to 52.1 ± 0.8 mN/m.

By viscosity is commonly meant the internal friction of a fluid under shear. By mass density is commonly meant the mass of a sample divided by its volume. As a reminder, the surface tension liquid-gas is the force per length acting along the surface.
